Measurements reported in patent US20220331327A1, “THE USE OF PARAXANTHINE TO IMPROVE PERFORMANCE IN VIDEO GAMERS” (priority 2021, published 2022).

How the values were obtained:
[1] = tested on: healthy men and women playing video games; experiment: Profile of Mood States (POMS) during gaming; format: in vivo, human; settings: 200 mg daily; for Tension, mean ± SD / Total Mood Disturbance (Tension + Depression + Anger + Fatigue + Confusion − Vigor), Mean ± SD / Vigor, mean ± SD / Tension, Mean of visit / Total Mood Disturbance, Mean of visit / Vigor, Mean of visit: n = 5; for Tension, Mean of visit / Total Mood Disturbance, Mean of visit / Vigor, Mean of visit: mean of 0, 1, 2 h; for Tension, Δ Baseline / Total Mood Disturbance, Δ Baseline / Vigor, Δ Baseline: versus baseline; for Tension, Δ PLA / Total Mood Disturbance, Δ PLA / Vigor, Δ PLA: versus placebo
Description: The effectiveness of study-products (paraxanthine and placebo) was assessed by measuring in-game performance, cognition during gaming (Stroop Test) and mood status during gaming (Profile of Mood States (POMS)). The POMS was completed pre-dose, after 60 minutes of gaming and immediately after completing 120 minutes of video gaming during all study visits. The POMS measured six subscales of mood, including tension-anxiety, depression-dejection, anger-hostility, vigor-activity, fatigue-inertia, and confusion-bewilderment. Subjects were asked to use a 5-point Likert scale (0=not at all, 1=a little, 2=moderately, 3=quite a bit, 4=extremely), to review a list of 65 words (feelings) and rank the degree to which they are experiencing that feeling at the moment. Since high vigor-activity scores reflect good moods or emotions, whereas low scores in the other subscales reflect a good mood or emotion, the total mood disturbance (TMD) score was computed by adding the five negative subscale scores (tension-anxiety, depression-dejection, anger-hostility, fatigue-inertia, and confusion-bewilderment) and subtracting the vigor-activity score. Higher numeric values of the TMD score indicate a greater degree of mood disturbance.

[2] = tested on: healthy subject; experiment: Video game Tetris, game performance measured by play time; format: in vivo, human; settings: 100 mg prior to playing Tetris; one subject
Description: Each of the three games were separated by a one-week washout period. In Tetris, the player brings down blocks from the top of the screen. The player can move the blocks around, either left to right and/or you can rotate them. The blocks fall at a certain rate, but the player can make them fall faster if he/she is sure of the positioning. The game Tetris becomes more challenging the longer you play. It becomes faster the better the player performs. The player has to make the same decisions but under a higher level of pressure. Each time the player clears a line in Tetris, the player is awarded more points. Each time the pieces reach the top of the screen, the game is over. Game performance was measured by play time. The player was not allowed to press a button to increase the speed of the current piece's descent or cause the piece to drop and lock into place immediately, known as a “soft drop” and a “hard drop”, respectively.

[3] = 3 weeks, listed as paraxanthine
[4] = 6 weeks, listed as paraxanthine

In the case of `Cn1c(=O)[nH]c2ncn(C)c2c1=O` [Paraxanthine, paraxanthine], the “Tension, mean ± SD” value ([1]; 3 weeks, 0 h) is reported as 4.0 ± 2.8, the “Total Mood Disturbance (Tension + Depression + Anger + Fatigue + Confusion − Vigor), Mean ± SD” value (from here on “Total Mood Disturbance … Mean ± SD”) ([1]; 3 weeks, 0 h) is reported as −6.2 ± 16.6 and the “Vigor, mean ± SD” value ([1]; 3 weeks, 0 h) is reported as 20.4 ± 6.8. For the same molecule, the “Tension, mean ± SD” value ([1]; 3 weeks, 1 h) was 2.0 ± 1.2, the “Total Mood Disturbance … Mean ± SD” value ([1]; 3 weeks, 1 h) was −6.8 ± 13.3 and the “Vigor, mean ± SD” value ([1]; 3 weeks, 1 h) was 18.0 ± 10.0. The “Tension, mean ± SD” value ([1]; 3 weeks, 2 h) was 2.4 ± 1.3, the “Total Mood Disturbance … Mean ± SD” value ([1]; 3 weeks, 2 h) was −6.4 ± 15.8 and the “Vigor, mean ± SD” value ([1]; 3 weeks, 2 h) was 16.4 ± 10.0. For the same molecule, the “Tension, Mean of visit” value ([1]; 3 weeks) was 2.8, the “Total Mood Disturbance, Mean of visit” value ([1]; 3 weeks) was −6.5 and the “Vigor, Mean of visit” value ([1]; 3 weeks) was 18.3. For the same molecule, the “Tension, mean ± SD” value ([1]; 6 weeks, 0 h) was 2.6 ± 1.8, the “Total Mood Disturbance … Mean ± SD” value ([1]; 6 weeks, 0 h) was −8.2 ± 13.8 and the “Vigor, mean ± SD” value ([1]; 6 weeks, 0 h) was 18.6 ± 8.6. For the same molecule, the “Tension, mean ± SD” value ([1]; 6 weeks, 1 h) was 2.0 ± 1.0, the “Total Mood Disturbance … Mean ± SD” value ([1]; 6 weeks, 1 h) was −11.2 ± 12.4 and the “Vigor, mean ± SD” value ([1]; 6 weeks, 1 h) was 18.2 ± 9.2. The “Tension, mean ± SD” value ([1]; 6 weeks, 2 h) was 2.2 ± 1.3, the “Total Mood Disturbance … Mean ± SD” value ([1]; 6 weeks, 2 h) was −8.8 ± 13.4 and the “Vigor, mean ± SD” value ([1]; 6 weeks, 2 h) was 17.2 ± 9.8. For the same molecule, the “Tension, Mean of visit” value ([1]; 6 weeks) was 2.3, the “Total Mood Disturbance, Mean of visit” value ([1]; 6 weeks) was −9.4 and the “Vigor, Mean of visit” value ([1]; 6 weeks) was 18.0. For the same molecule, the “Tension, mean ± SD” value ([1]; Baseline visit, 0 h) was 5.4 ± 2.2, the “Total Mood Disturbance … Mean ± SD” value ([1]; Baseline visit, 0 h) was −2.2 ± 10.5 and the “Vigor, mean ± SD” value ([1]; Baseline visit, 0 h) was 19.2 ± 5.3. The “Tension, mean ± SD” value ([1]; Baseline visit, 1 h) was 5.6 ± 5.4, the “Total Mood Disturbance … Mean ± SD” value ([1]; Baseline visit, 1 h) was −2.6 ± 18.6 and the “Vigor, mean ± SD” value ([1]; Baseline visit, 1 h) was 17.4 ± 6.5. The “Tension, mean ± SD” value ([1]; Baseline visit, 2 h) was 2.8 ± 1.3, the “Total Mood Disturbance … Mean ± SD” value ([1]; Baseline visit, 2 h) was −0.4 ± 16.1 and the “Vigor, mean ± SD” value ([1]; Baseline visit, 2 h) was 13.2 ± 6.4. The “Tension, Mean of visit” value ([1]; Baseline visit) was 4.6, the “Total Mood Disturbance, Mean of visit” value ([1]; Baseline visit) was −1.7 and the “Vigor, Mean of visit” value ([1]; Baseline visit) was 16.6. The “Tension, Δ Baseline” value ([1]; 3 weeks) was −39.1%, the “Total Mood Disturbance, Δ Baseline” value ([1]; 3 weeks) was −282% and the “Vigor, Δ Baseline” value ([1]; 3 weeks) was “+10.2%”. The “Vigor, Δ Baseline” value [1, 3] was 10.2%, the “Tension, Δ PLA” value ([1]; 3 weeks) was −51.7% and the “Total Mood Disturbance, Δ PLA” value ([1]; 3 weeks) was −166%. The “Vigor, Δ PLA” value ([1]; 3 weeks) was “+28.9%”, the “Vigor, Δ PLA” value [1, 3] was 28.9% and the “Tension, Δ Baseline” value ([1]; 6 weeks) was −50.0%. The “Total Mood Disturbance, Δ Baseline” value ([1]; 6 weeks) was −453%, the “Vigor, Δ Baseline” value ([1]; 6 weeks) was “+8.4%” and the “Vigor, Δ Baseline” value [1, 4] was 8.4%. The “Tension, Δ PLA” value ([1]; 6 weeks) was −61.0%, the “Total Mood Disturbance, Δ PLA” value ([1]; 6 weeks) was −189% and the “Vigor, Δ PLA” value ([1]; 6 weeks) was “+59.3%”. For the same molecule, the “Vigor, Δ PLA” value [1, 4] was 59.3%, the “worsening of total mood disturbance during continued gaming” value ([1]; after 3 and 6 weeks) was “an effect that was not observed in the paraxanthine group” and the “total mood disturbance, effect in words” value ([1]; after 3 and 6 weeks, compared to baseline and to placebo) was “improved total mood disturbance”. For the same molecule, the “decrease of feelings of tension-anxiety compared to baseline” value ([1]; after 3 weeks) was 39.1%, the “decrease of feelings of tension-anxiety compared to placebo” value ([1]; after 3 weeks) was 51.7% and the “decrease of feelings of tension-anxiety compared to baseline” value ([1]; after 6 weeks) was 50%. For the same molecule, the “decrease of feelings of tension-anxiety compared to placebo” value ([1]; after 6 weeks) was 61.0%, the “course of tension with duration of play” value ([1]; the longer the subject played) was “tension decreased in the paraxanthine group the longer the subject played” and the “gaming performance (play time), effect in words” value [2] was “increased gaming performance compared to placebo, and compared to caffeine intake”.
